Data from patent US20100168112A1, “2-Substituted and 4-substituted aryl nitrone compounds” (RENOVIS, INC., priority 2004, published 2010).
pEC50: −log10 of the molar value.

Assays:
[1] = Pharmacokinetic evaluation following intravenous and oral administration in rats; type: in vivo; details: male, Sprague-Dawley; for Cmax / Tmax / bioavailability: 5 mg/kg; for Cmax: rat plasma; for Cmax / Tmax: oral gavage, 2 mg/mL at 2.5 mL/kg; for clearance / Vd / Tmax / bioavailability / half-life: plasma, rat; for clearance / Vd / half-life: 1 mg/kg; for clearance / Vd: intravenous administration, 1 mg/mL at 1.0 mL/kg; for clearance: read-out: CI (clearance) (converted); for Vd: read-out: Vd (volume of distribution); for bioavailability: po 2 mg/mL at 2.5 mL/kg vs iv 1 mg/mL at 1.0 mL/kg, dose-normalized, read-out: F (%) oral bioavailability; for half-life: intravenous, read-out: T1/2 elimination half life (converted)
Procedure: Male Sprague-Dawley rats were given at least 24 hours acclimation before experiment initiation. During acclimation period, all animals received food and water ad libitum. However, food (not water) was removed from the animal's cages up to 12 hours before initiation of the experiment. During the first 4 hours of experimentation, the animals received only water ad libitum. Two to three animals for iv and three animals for oral administration were tested. For iv formulation nitrone compounds of this invention were dissolved (1 mg/mL) in a mixture of 5% dimethyl acetamide (v/v), 0 to 4% Tween 80 (v/v), 10 to 40% PEG 400 (v/v) and the rest percentage of water (v/v). For oral formulation nitrone compounds of this invention were dissolved (2 mg/mL) in a mixture of 4% of 10% Tween in water and 96% of 0.5% carboxymethyl cellulose (medium viscosity) in water; or 4% of 10% Tween in water, 48% of 0.5% carboxymethyl cellulose (medium viscosity) in water, and 48% of 0.5% Hydroxypropyl Methylcellulose/0.2% Sodium Lauryl Sulfate in water. These formulations were stored at 5° C. until the experiment. Formulations were then stir-mixed at least half an hour before dosing. Exactly 200 μL of each left-over formulation was diluted with CH3CN/H2O for concentration analysis. The animals were weighed before dosing. The body weight was used to calculate the true dose for each animal:
IV dosing: • Dose volume (mL)=1.0 mL/kg The intravenous dose was administered through the jugular vein catheter or tail vein in less than 1 minute.
PO dosing: • Dose volume (mL)=2.5 mL/kg The oral dose was administered by oral gavage.
For IV dosing, blood samples were collected (using a pre-heparinized syringe) via the carotid artery or jugular vein catheter at t=2, 5, 15, 30, 60, 120, 180, 360, and 480 minutes post dosing. For PO dosing, blood samples were collected (using a pre-heparinized syringe) via the carotid artery or jugular vein catheter before dosing and at t=5, 15, 30, 60, 120, 180, 360, and 480 minutes post dosing. For some nitrone compounds a 1440 minutes (24 hours) sample was also taken for both IV and PO administrations. About 250 μL of blood was obtained at each time point from the animals. Equal volumes of 0.9% normal saline were replaced to prevent dehydration. The whole blood samples were maintained on ice until centrifugation. Blood samples were then centrifuged at 14,000 rpm for 10 minutes at 4° C. and the upper plasma layer transferred into a clean vial and stored at −80° C. The resulting plasma samples were then analyzed by mass spectroscopy using standard methods.
All the samples from above assays were analyzed on a PE-Sciex API 3000 triple quadrupole with a Turbo Ion Spray source. Nitrone compounds of this invention were separated from the matrix via a linear gradient reverse-phase chromatography using a C18 column, such as Thermo BDS Hypersil C18 (100×4.6 mm, 5 micron particle, 120A pore size). The mobile Phases were:
Nitrone compounds were detected by the mass spectrometer in the positive ion multiple reaction monitoring mode (MRM). For quantitative analysis, a standard curve was prepared by spiking a stock solution of the nitrone compound to the appropriate matrix to achieve a quantitation curve range and analyzed the standards in the same manner as the samples.
Pharmacokinetic parameters of the aryl nitrone compounds were determined by a noncompartmental analysis using WinNonlin-Pro (Version 4.1, Pharsight Corporation). Average and standard deviation of the parameters were calculated using standard formulas in Microsoft Excel.

[2] = Microsomal stability in human liver microsomes; type: in vitro ADME; details: NADPH, 37° C.
Procedure: Frozen Sprague-Dawley rat liver microsomes (RLM) were thawed on ice and gently mixed before use. The final reaction mixture consisted of a nitrone compound of this invention (at ˜500 ng/ml), 1 mM NADPH, and 0.5 mg/ml of RLM protein in 0.1 M PBS (pH7.4), with organic solvent concentration not exceeding 1% (v/v). Per set of incubations, a positive control compound was included. The mixture was first pre-incubated 3 to 5 minutes at 37° C. without NADPH, and the reaction was then initialized by the addition of NADPH and incubated at 37° C. for up to 30 minutes. An aliquot of the reaction mixture was sampled at the initiation of the reaction and at designated time after reaction started. The drawn samples were quenched with acetonitrile, diluted with mobile phase to ensure the detection of test article in the linear range, and analyzed by LC/MS/MS. Half-life or percentage of remaining nitrone compound was calculated using standard methods. A similar method, or a slight variation of it, was used to test the stability of nitrones in human liver microsomes (HLM).

[3] = DPPH free radical-scavenging/antioxidant assay; type: biochemical; details: 50 μM DPPH in 80% methanol; 24 h time point; read-out: EC50 (concentration at which a compound reduces by 50% the peak absorbance of DPPH at 520 nm)
Procedure: Nitrone compounds of the present invention were tested for their free-radical scavenging/antioxidant activity in an in vitro assay that is accepted by those skilled in the art as a model for conditions involving the generation of free radicals. The assay is based on a reaction between a free-radical donor, 2,2-diphenyl-1-picrylhydrazyl (DPPH), and a radical scavenger/antioxidant to be tested for free-radical scavenging activity. Upon donation of the free-radical electron to the purported radical scavenger, the peak visible absorbance of DPPH (515-520 nm) decreases so that optical density readings at this part of the visual spectrum reflect the progression of the following reaction:
where AH is a hypothetical radical scavenger/antioxidant. The assay is based on a protocol originally detailed in Brand-Williams, W. et al., 1995, Use of a Free Radical Method to Evaluate Antioxidant Activity, Lebensm. Wiss. Technol., 28:25-30, with further modifications described in L. R. Fukumoto and G. Mazza, 2000, Assessing Antioxidant and Prooxidant Activities of Phenolic Compounds, J. Agric. Food Chem., 48:3597-3604.
The antioxidant assay was performed using Perkin-Elmer 96-well, clear-bottom, black-wall plates (ordered from E & K Scientific Products) and a Tecan Safire absorbance plate reader. The positive controls were Trolox (6-hydroxy-2,5,7,8-tetramethylchromane-2-carboxylic acid, Sigma-Aldrich), BHA (2(3)-tert-butylhydroquinone monomethyl ether, Sigma-Aldrich), PBN (C-(phenyl)-N-(tert-butyl)nitrone, Sigma-Aldrich) and S-PBN (C-(2-sulfophenyl)-N-(tert-butyl)nitrone, sodium salt, prepared according to E. G. Janzen and R. V. Shetty, 1979, Tetrahedron Lett., 35: 3229-32), and the negative control (i.e., vehicle) was DMSO. In brief, 2 μL of 100× DMSO stock of the desired final concentration of each control or nitrone compound to be tested in the same batch was added to a separate well. To each well was then added 198 μL of a freshly made 50 μM DPPH (Sigma-Aldrich) solution in 80% methanol using a multi-channel pipette. The absorbance was immediately read on the plate reader at 520 nm and thereafter read periodically to assess kinetics until all reactions reached completion (i.e., steady state). Since the steady-state point was 24 h, the assay results are shown from the 24 h time point. The absorbance at 520 nm (OD) was plotted versus the concentrations of the controls and nitrone compounds to assess dose-response and interpolate the EC50 values of the controls and test compounds.

| Compound | Cmax [1] | clearance [1] | Vd [1] | Tmax [1] | bioavailability [1] | half-life [1] | % of Nitrone Remaining at 30 min (Human) [2] | pEC50 [3] |
| --- | --- | --- | --- | --- | --- | --- | --- | --- |
| CC(C)(C)/[N+]([O-])=C/c1ccc(S(C)(=O)=O)nc1 [Compound 80, N-tert-Butyl-C-(6-methanesulfonyl-pyridine-3-yl)nitrone] | 3940 ng/mL | 3.5 mL/min/kg | 0.52 L/kg | 30 min | 54.7% | 103 min | 94.5% |  |
| CS(=O)(=O)c1ccc(/C=[N+](\[O-])Cc2ccccc2)cn1 [Compound 81, N-Benzyl-C-(6-methanesulfonyl-pyridine-3-yl)nitrone] |  |  |  |  |  |  | 90.5% |  |
| CN(c1ccccc1)S(=O)(=O)c1ccc(/C=[N+](\[O-])Cc2ccccc2)cc1 [Compound 57, N-Benzyl-C-[4-(methyl-phenyl-sulfamoyl)phenyl]nitrone] |  |  |  |  |  |  | 14% | < 3.00 |
| CC(C)(C)NS(=O)(=O)c1ccc(/C=[N+](\[O-])Cc2ccccc2)cc1 [Compound 61, N-Benzyl-C-[4-(tert-butylsulfamoyl)phenyl]nitrone] |  |  |  |  |  |  | 95% | < 3.00 |
| CC(C)(C)NS(=O)(=O)c1ccccc1/C=[N+](\[O-])C(C)(C)C [Compound 48, N-tert-Butyl-C-(2-tert-butylsulfamoyl-phenyl)nitrone] | 862 ng/mL | 32.8 mL/min/kg | 1.39 L/kg | 15 min | 55.3% | 29.4 min | 100% | < 3.00 |
| CC(C)/[N+]([O-])=C/c1ccc(S(=O)(=O)NC(C)(C)C)cc1 [Compound 59, N-Isopropyl-C-[4-(tert-butylsulfamoyl)phenyl]nitrone] |  |  |  |  |  |  | 100% | < 3.00 |
| CCN(CC)S(=O)(=O)c1ccc(/C=[N+](\[O-])C2CCCCC2)cc1 [Compound 52, N-Cyclohexyl-C-(4-diethylsulfamoylphenyl)nitrone] |  |  |  |  |  |  | 64% |  |
| CNS(=O)(=O)c1ccccc1/C=[N+](\[O-])C(C)(C)C [Compound 47, N-tert-Butyl-C-(2-methylsulfamoyl-phenyl)nitrone] |  |  |  |  |  |  | 100% | < 3.00 |

The remaining lines, values ahead:

| Cmax [1] | clearance [1] | Vd [1] | Tmax [1] | bioavailability [1] | half-life [1] | % of Nitrone Remaining at 30 min (Human) [2] | pEC50 [3] | Compound |
| --- | --- | --- | --- | --- | --- | --- | --- | --- |
|  |  |  |  |  |  | 65% |  | CCN(CC)S(=O)(=O)c1ccc(/C=[N+](\[O-])Cc2ccccc2)cc1 [Compound 53, N-Benzyl-C-(4-diethylsulfamoylphenyl)nitrone] |
|  |  |  |  |  |  | 0% | < 3.00 | CC(C)(C)/[N+]([O-])=C/c1ccccc1S(=O)(=O)NCc1ccccc1 [Compound 49, N-tert-Butyl-C-(2-benzylsulfamoyl-phenyl)nitrone] |
| 1.59 ng/mL | 63.3 mL/min/kg | 2.84 L/kg | 8.4 min | 0.4% | 30.6 min | 100% | < 3.00 | CC(C)(C)NS(=O)(=O)c1ccc(/C=[N+](\[O-])C2CCCCC2)cc1 [Compound 60, N-Cyclohexyl-C-[4-(tert-butylsulfamoyl)phenyl]nitrone] |
|  |  |  |  |  |  | 33% | < 3.00 | CN(c1ccccc1)S(=O)(=O)c1ccc(/C=[N+](\[O-])C2CCCCC2)cc1 [Compound 56, N-Cyclohexyl-C-[4-(methyl-phenyl-sulfamoyl)phenyl]nitrone] |
|  |  |  |  |  |  | 82% |  | CC(C)/[N+]([O-])=C/c1ccc(S(=O)(=O)N(C)c2ccccc2)cc1 [Compound 55, N-Isopropyl-C-[4-(methyl-phenyl-sulfamoyl)phenyl]nitrone] |
|  |  |  |  |  |  | 94% | < 3.00 | CCN(CC)S(=O)(=O)c1ccc(/C=[N+](\[O-])C(C)C)cc1 [Compound 51, N-Isopropyl-C-(4-diethylsulfamoylphenyl)nitrone] |
| 180 ng/mL | 35.8 mL/min/kg | 3.21 L/kg | 15 min | 13.2% | 61.8 min | 62% | < 3.00 | CN(c1ccccc1)S(=O)(=O)c1ccc(/C=[N+](\[O-])C(C)(C)C)cc1 [Compound 54, N-tert-Butyl-C44-(methyl-phenyl-sulfamoyl)phenylInitrone] |
|  |  |  |  |  |  | 86% | < 3.00 | CCN(CC)S(=O)(=O)c1ccc(/C=[N+](\[O-])C(C)(C)C)cc1 [Compound 50, N-tert-Butyl-C-(4-diethylsulfamoylphenyl)nitrone] |
|  |  |  |  |  |  | 100% | < 3.00 | CC(C)(C)NS(=O)(=O)c1ccc(/C=[N+](\[O-])C(C)(C)C)cc1 [Compound 58, N-tert-Butyl-C[4-(tert-butylsulfamoyl)phenyl]nitrone] |
